Reference: ChEMBL document CHEMBL4138317, “Deciphering the Inhibition of the Neuronal Calcium Sensor 1 and the Guanine Exchange Factor Ric8a with a Small Phenothiazine Molecule for the Rational Generation of Therapeutic Synapse Function Regulators” (J Med Chem, 2018)
Activity calls are given as the source filed them. The calls are words filed in the database; no cut-off is given here.

Key:
Frequenin-2 = target: T1, Frequenin-2 (Drosophila melanogaster, UniProt Q9VWX8); assay: Binding affinity to drosophila NCS1 expressed in Escherichia coli BL21 (DE3) by fluorescence emission assay; conditions: read-out: Kd(app)
T1 sequence (Q9VWX8 whole entry): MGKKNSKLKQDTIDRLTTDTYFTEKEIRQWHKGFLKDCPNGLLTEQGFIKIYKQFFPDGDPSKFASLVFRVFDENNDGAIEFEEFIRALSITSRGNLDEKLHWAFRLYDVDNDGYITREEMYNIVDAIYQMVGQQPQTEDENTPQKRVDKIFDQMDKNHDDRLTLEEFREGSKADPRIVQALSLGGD

[1] = target: T2, Frequenin-2 (Drosophila melanogaster) (UniProt Q9VWX8); assay: Binding affinity to drosophila NCS1 expressed in Escherichia coli BL21 (DE3) by STD-NMR method
T2 sequence (whole entry): T1 sequence (Q9VWX8 whole entry)

[2] = target: Neuronal calcium sensor 1/Synembryn-A (Homo sapiens) (UniProt P62166+Q9NPQ8); assay: Inhibition of human NCS1 and V5-tagged Ric8a interaction expressed in HEK293 cells at 20 uM after 24 hrs by Western blot analysis relative to control; format: cell-based
Neuronal calcium sensor 1/Synembryn-A (Homo sapiens), sequence (P62166 whole entry, looked up): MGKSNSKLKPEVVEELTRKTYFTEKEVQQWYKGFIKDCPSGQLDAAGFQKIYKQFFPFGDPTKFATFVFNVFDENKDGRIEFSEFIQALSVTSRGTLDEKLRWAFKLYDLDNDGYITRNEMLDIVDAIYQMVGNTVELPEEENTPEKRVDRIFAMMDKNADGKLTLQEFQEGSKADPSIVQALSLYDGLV
Neuronal calcium sensor 1/Synembryn-A (Homo sapiens), sequence (Q9NPQ8 whole entry, looked up): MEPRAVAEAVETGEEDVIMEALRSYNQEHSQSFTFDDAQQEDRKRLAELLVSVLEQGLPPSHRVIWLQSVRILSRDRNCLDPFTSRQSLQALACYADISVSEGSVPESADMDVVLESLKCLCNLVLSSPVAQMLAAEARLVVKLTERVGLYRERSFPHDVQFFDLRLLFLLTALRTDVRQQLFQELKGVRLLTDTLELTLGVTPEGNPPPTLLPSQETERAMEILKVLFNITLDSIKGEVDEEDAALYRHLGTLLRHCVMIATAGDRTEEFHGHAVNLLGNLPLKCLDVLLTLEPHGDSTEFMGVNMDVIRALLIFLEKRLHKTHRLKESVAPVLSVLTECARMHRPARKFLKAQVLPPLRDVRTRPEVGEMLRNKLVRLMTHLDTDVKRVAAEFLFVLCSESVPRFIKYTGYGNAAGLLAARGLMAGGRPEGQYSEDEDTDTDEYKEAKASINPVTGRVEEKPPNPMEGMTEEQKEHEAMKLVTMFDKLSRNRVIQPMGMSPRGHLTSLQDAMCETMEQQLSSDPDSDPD

[3] = target: Neuronal calcium sensor 1 (Homo sapiens, UniProt P62166); assay: Binding affinity to human NCS1 expressed in Escherichia coli BL21 Star (DE3) by fluorescence emission assay; conditions: read-out: Kd(app)
Neuronal calcium sensor 1, sequence (P62166 2-190 limits assumed): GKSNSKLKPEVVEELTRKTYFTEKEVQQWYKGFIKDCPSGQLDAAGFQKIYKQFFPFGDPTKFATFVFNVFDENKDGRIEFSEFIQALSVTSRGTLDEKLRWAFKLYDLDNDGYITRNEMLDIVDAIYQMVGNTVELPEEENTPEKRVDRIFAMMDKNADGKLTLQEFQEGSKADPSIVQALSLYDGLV

Kd (Frequenin-2) | Activity [1] | inhibition [2] | Kd [3] | SMILES
71 µM | Active |  |  | O=C(CN1CCCCC1)NN1c2ccccc2Sc2ccccc21
 |  | 50% | 11.5 µM | COc1ccccc1C(=O)Nc1nc2cc(C(F)(F)F)ccc2s1
 |  | 50% |  | Cc1sc(NC(=O)CNC(=O)c2ccc(F)cc2)nc1-c1ccccc1
1.13 µM |  | 50% | 1.25 µM | O=C(CC(c1ccccc1)c1ccccc1)Nc1nc2ccccc2s1
